Values quoted from earlier work as cited in patent US20100048397A1, “GABA/Pesticidal Combinations” (priority 2008, published 2010).

Legend:
[1] = tested on: greenhouse-grown tomato plants; settings: in vivo
[2] = tested on: greenhouse-grown cucumber plants; settings: in vivo
leek seed = settings: seed treatment, compared with seed treated with fipronil

## O=[N+]([O-])NC1=NCCN1Cc1ccc(Cl)nc1 [imidacloprid, (E)-1-(6-chloro-3-pyridylmethyl)-N-nitroimidazolidin-2-ylideneamine]
[1]
  phytotoxicity at lowest rate: caused phytotoxicity symptoms
[2]
  phytotoxicity at lowest rate: caused phytotoxicity symptoms
Leek seed
  phytotoxicity, germination rate: delayed germination rates
